Laboratory results from patent US20260250412A1, “COMBINATION OF ANTIBODY-DRUG CONJUGATE AND ANTI-PD-1 ANTIBODY, AND USE THEREOF” (GENEQUANTUM HEALTHCARE (SUZHOU) CO., LTD., priority 2023, published 2026).
Values joined by “and” are separate entries in the source; they are usually repeats but may differ in a detail not shown here. Equal values may be shown once.

Key:
[1] = test system: Trop2-positive cells BxPC-3 and Trop2-negative HepG2 cells; assay: Bystander killing in BxPC-3/HepG2 co-culture assay (BxPC-3:HepG2=2:1); type: cell-based, human
Procedure: After the treatment, the cells were moved to the incubator and incubated for 96 h. After the incubation, cells were digested, and washed once with 1×PBS, then transferred to a flow tube, and centrifuged at 2000 rpm for 3 min. The supernatant was then discarded, and the cell amount and cell viability were detected. […] The cells were washed with 1×PBS, the supernatant was discarded after centrifugation, 200 μL of 5 μg/mL human IgG Fe antibody was added, and the resulting cells were continued to incubate at 4° C. for 30 min after mixing. Finally, the cells were washed with 1×PBS, the supernatant was discarded after centrifugation, and the cells were resuspended in PBS, detected by flow cytometry and analyzed by FlowJo software.

[2] = test system: human breast cancer cells MDA-MB-468; assay: Cell proliferation, CellTiter Glo, 96 h, MDA-MB-468; type: cell-based; conditions: MDA-MB-468, 96 h
[3] = test system: BxPC-3 mouse xenograft tumor; assay: In vivo efficacy, BxPC-3 mouse xenograft tumor; set-up: species or system BALB/c nude mice; conditions: for T/C (%) / TGI (%) / Tumor volume (mm^3) Day 0 / tumor growth inhibition (in words): 3 mg/kg; for Tumor volume (mm^3) Day 0: baseline at grouping
Procedure: (§1) I. The logarithmic growth phase BxPC-3 were collected and the cell density was adjusted to 10×10^6 cells/mL with Matrigel buffer (PBS:Matrigel=1:1). 0.2 mL of the prepared BxPC-3 cell suspension was subcutaneously injected into the right scapula of SPF female BALB/c nude mice aged 6-8 weeks.
(§2) II. The tumor diameter was measured with a vernier caliper and the tumor volume was calculated according to the formula V=0.5a×b^2 (where a is the longest diameter of the tumor and b is the shortest diameter of the tumor). […] Animals in each group were administered by tail vein injection, and the control group was given an equal volume of vehicle. […] T/C and TGI values were calculated using tumor volume. The calculation formula is as follows: T/C %=TRTV/CRTV×100% (TRTV: RTV of the treatment group; CRTV: RTV of the vehicle control group). The relative tumor volume (RTV) was calculated based on the results of tumor measurement, and the calculation formula was RTV=Vt/V0, where V0 was the average tumor volume measured at the time of grouping (i.e., D0), Vt was the average tumor volume at one measurement, and TRTV and CRTV took the same day of data.
6 days after cell inoculation, when the average tumor volume was about 159 mm^3, animals were randomly divided into vehicle control group, ADC-5 3 mg/kg group, ADC-6 3 mg/kg group, and DS1062a 3 mg/kg group, with 6 animals in each group.

[4] = test system: FaDu mouse xenograft tumor; assay: In vivo efficacy, FaDu mouse xenograft tumor; set-up: species or system BALB/c nude mice; conditions: for Tumor volume (mm^3) Day 0: baseline at grouping
Procedure: as §1
II. The tumor diameter was measured with a vernier caliper and the tumor volume was calculated according to the formula V=0.5a×b^2 (where a is the longest diameter of the tumor and b is the shortest diameter of the tumor). […] Animals in each group were administered by tail vein injection, and the control group was given an equal volume of vehicle. The tumor volume of animals in each group was measured twice a week within 35 days after administration, and the tumor volume of animals on day 35 was compared between groups. T/C and TGI values were calculated using tumor volume. The calculation formula is as follows: T/C %=TRTV/CRTV×100% (TRTV: RTV of the treatment group; CRTV: RTV of the vehicle control group). The relative tumor volume (RTV) was calculated based on the results of tumor measurement, and the calculation formula was RTV=Vt/V0, where V0 was the average tumor volume measured at the time of grouping (i.e., D0), Vt was the average tumor volume at one measurement, and TRTV and CRTV took the same day of data.
The BxPC-3 pancreatic cancer cells in Example 3.3.1 were replaced with human pharyngeal squamous cells carcinoma FaDu, and 10 days after cell inoculation, when the average tumor volume was about 119 mm^3, animals were randomly divided into vehicle control group, […], with 6 animals in each group.

[5] = test system: human breast cancer BR-05-0028 model; assay: In vivo efficacy, human breast cancer BR-05-0028 mouse xenograft tumor; set-up: species or system BALB/c nude mice
Procedure: as §2
The human breast cancer BR-05-0028 model (IHC 3±) was derived from tumor samples resected in clinical surgery. The tumor samples were inoculated into nude mice at the P0 generation, and the tumor tissue used in this example was the P5 generation. Tumor tissue with a volume of about 30 mm^3 was subcutaneously inoculated into the right back dorsum of SPF female BALB/c nude mice aged 6-8 weeks.

[6] = test system: Trop2 positive cancer cells NCI-N87; assay: Cytotoxicity assay, CellTiter-Glo, 168 h, NCI-N87; type: cell-based, human
Procedure: In brief, 3000 to 5000 cells were plated in 96-well plates, and cells were able to attach overnight. Cells were treated with indicated drugs with various concentrations for 168 h. Cell viabilities were examined by CellTiter-Glo® Luminescent Cell Viability Assay, and percentage of cell viability was calculated.

[7] = test system: human pharyngeal squamous cells carcinoma FaDu; assay: Cell proliferation, CellTiter Glo, 96 h, FaDu; type: cell-based
Procedure: A positive control group was set: 100 μL Puromycin at a concentration of 10 μg/mL was added to each well. […] After the administration was completed, the cells were moved to the incubator and incubated for 96 h. The 96-well plate was removed from the 37° C. cell incubator and equilibrated to room temperature for 30 minutes. After the medium was discarded, 100 μL of DMEM and 50 μL of CellTiter Glo reagent were added to each well, and the cells were shaken in the dark at 200 rpm for 15 minutes, and the luminescent signal reflecting cell viability was detected by a microplate reader.

[8] = Table 6, same process as effect example 1.2
[9] = Table 15, single dose, 5 mg/kg, Day 21

DS1062a
Amount of cells (10^4) BxPC-3 ([1]; Table 5, 10 nM): 12.25 10^4 | Amount of cells (10^4) HepG2 ([1]; Table 5, 10 nM): 144.75 10^4 | Cell proportion (%) BxPC-3 ([1]; Table 5, 10 nM): 7.8% | Cell proportion (%) HepG2 ([1]; Table 5, 10 nM): 92.2% | Number of viable cells (10^4) ([1]; Table 5, 10 nM, whole co-culture): 157.0 10^4 | Amount of cells (10^4) BxPC-3 [1, 8]: 12.25 10^4 | Amount of cells (10^4) HepG2 [1, 8]: 144.75 10^4 | Cell proportion (%) BxPC-3 [1, 8]: 7.8% | Cell proportion (%) HepG2 [1, 8]: 92.2% | Number of viable cells (10^4) ([1]; Table 6, same process as effect example 1.2, whole co-culture): 157.0 10^4 | bystander killing effect (in words) ([1]; effect example 1.3): had bystander killing effects | inhibition of proliferation (in words) [2]: could inhibit the proliferation of MDA-MB-468 cells | IC50 ([2]; Table 9): 2.5 nM | Tumor volume (mm^3) Day 35 ([3]; Table 13, 3 mg/kg, tail vein injection): 847 mm^3 and 847 ± 104 mm^3 | T/C (%) ([3]; Table 13, Day 35): 64.05% | TGI (%) ([3]; Table 13, Day 35): 40.54% | Tumor volume (mm^3) Day 0 ([3]; Table 13, tail vein injection): 151 ± 12 mm^3 | Tumor volume (mm^3) Day 28 ([3]; Table 16, 3 mg/kg): 540 mm^3 and 540 ± 74 mm^3 | T/C (%) ([3]; Table 16, Day 28): 58.49% | TGI (%) ([3]; Table 16, Day 28): 48.52% | Tumor volume (mm^3) Day 0 ([3]; Table 16): 151 ± 12 mm^3 | Tumor volume (mm^3) Day 42 ([3]; Table 19, 3 mg/kg): 302 mm^3 and 302 ± 73 mm^3 | T/C (%) ([3]; Table 19, Day 42): 27.69% | TGI (%) ([3]; Table 19, Day 42): 84.60% | Tumor volume (mm^3) Day 0 ([3]; Table 19): 159 ± 11 mm^3 | tumor growth inhibition (in words) ([3]; effect example 3.1.1, compared with the control group): could significantly inhibit tumor growth | tumor growth inhibition (in words) ([3]; effect example 3.3.1, after 42 days): could significantly inhibit tumor growth | Tumor volume (mm^3) Day 28 ([4]; Table 18, 3 mg/kg): 28 mm^3 and 28 ± 14 mm^3 | T/C (%) ([4]; Table 18, 3 mg/kg, Day 28): 1.68% | TGI (%) ([4]; Table 18, 3 mg/kg, Day 28): 106.11% | Tumor volume (mm^3) Day 0 ([4]; Table 18, 3 mg/kg): 123 ± 13 mm^3 | Tumor volume (mm^3) Day 31 ([4]; Table 21, 2 mg/kg): 296 mm^3 and 296 ± 125 mm^3 | T/C (%) ([4]; Table 21, 2 mg/kg, Day 31): 15.47% | TGI (%) ([4]; Table 21, 2 mg/kg, Day 31): 90.15% | Tumor volume (mm^3) Day 0 ([4]; Table 21, 2 mg/kg): 119 ± 11 mm^3 | tumor growth inhibition (in words) ([4]; effect example 3.2.3, 3 mg/kg, after 28 days): could significantly inhibit FaDu tumor growth | tumor growth inhibition (in words) ([4]; effect example 3.3.3, 2 mg/kg, after 31 days): could significantly inhibit tumor growth | Tumor volume (mm^3) Day 21 ([5]; Table 15, single dose, 5 mg/kg): 8 ± 1 mm^3 | T/C (%) [5, 9]: 0.48% | TGI (%) [5, 9]: 111.60% | Tumor volume (mm^3) Day 0 ([5]; Table 15, single dose, 5 mg/kg, baseline at grouping): 171 ± 23 mm^3 | tumor growth inhibition (in words) ([5]; effect example 3.1.3, 5 mg/kg (ADC-1 also 10 mg/kg), after 21 days): able to significantly inhibit tumor growth | IC50 [6]: 2.1 nM | inhibition of proliferation (in words) [7]: could inhibit the proliferation of FaDu cells | IC50 ([7]; Table 7): 0.551 nM
